Data reported in the NIST ThermoML archive (doi:10.1007/s10765-005-8096-3).
Numbers after ± are expanded uncertainties.

Assay: refractive index (Na D-line) (dimensionless)
Conditions: 298.15 K; 101.33 kPa; Liquid; Standard Abbe refractometry

| Structure (SMILES) | refractive index |
| --- | --- |
| Cc1cc(C)cc(C)c1 [1,3,5-trimethylbenzene] | 1.49682 ± 0.00075 |
| Cc1ccc(C)cc1 [1,4-dimethylbenzene] | 1.49298 ± 0.00075 |
| CC(C)(C)c1ccccc1 [(1,1-dimethylethyl)benzene] | 1.49003 ± 0.00075 |
| CC(C)Cc1ccccc1 [(2-methylpropyl)benzene] | 1.48397 ± 0.00075 |
| CCCCOC(C)=O [butyl ethanoate] | 1.39176 ± 0.00075 |
| CCCCc1ccccc1 [butylbenzene] | 1.48735 ± 0.00075 |
| CCc1ccccc1 [ethylbenzene] | 1.49316 ± 0.00075 |
| CC(C)c1ccccc1 [isopropylbenzene] | 1.48869 ± 0.00075 |
| Cc1ccccc1 [toluene] | 1.49399 ± 0.00075 |
